Data: article PMC6407204, “Oral administration of the cannabigerol derivative VCE-003.2 promotes subventricular zone neurogenesis and protects against mutant huntingtin-induced neurodegeneration” (Translational Neurodegeneration, 2019)

System: mutant huntingtin-induced neurodegeneration
Test: Viral model of Huntington's disease, AAV expression of mutant huntingtin (AAV-htt94Q) in mouse striatum
Format: in vivo, C57BL/6 N mice
Conditions: 10 mg/kg/day oral
Description: Male C57BL/6 N mice (10 weeks old) were housed under standard conditions (12-h light/dark cycle) in groups with access to food and water ad libitum. All experiments were performed in accordance with European Union guidelines and approved by the Animal Research Ethics Committee of Complutense and Córdoba University. Procedures were designed to minimize the number of animals used and their suffering. Constructs expressing CFP-tagged human huntingtin exon 1 harboring a pathogenic polyQ tract of 94 CAG repeats or a normal, non-pathogenic polyQ tract of 16 CAG repeats (kindly provided by Dr. José J. Lucas, Severo Ochoa Molecular Biology Center, Madrid, Spain) were employed using an AAV1/AAV2 mixed serotype, generated by polyethyleneimine transfection of HEK293T cells and subsequent purification in iodixanol gradient. Vectors were injected stereotactically (in 3 μl PBS) into the dorsal striatum in a bilateral manner at coordinates (mm to bregma): antero-posterior + 0.5, lateral ±2.5, dorso-ventral − 3.5 as previously described. VCE-003.2 (10 mg/kg) or vehicle (sesame oil) were orally administered once daily (Fig. 1), and for neurogenesis experiments BrdU (100 mg/kg) was administered i.p. twice daily on the first week after viral injection. RotaRod test was conducted prior to drug injections to avoid acute effects of the compounds under investigation. RotaRod started at 4 rpm, with an acceleration rate of 6 rpm/min until either maximum speed is reached or the mouse falls from the apparatus. Maximum time assay was 10 min. Basal RotaRod performance was determined 6 days prior to striatal injury in 3 consecutive days with 3 trials/day (30 min of rest between each trial), and groups with equivalent motor function were assigned. RotaRod test was performed during 3 consecutive days prior to sacrifice and plasma was obtained for peripheral biomarker analyses. All experiments included a minimum of 6 mice per condition. The precise number of animals analyzed in each experiment is indicated in the corresponding figure legends.
Free floating coronal brain slices (30 μm) were processed as previously described. In brief, after blocking with 10% goat serum, brain sections were incubated with the indicated primary antibodies followed by secondary antibody incubation (2 h at room temperature). The appropriate mouse, rat and rabbit highly cross-adsorbed AlexaFluor 488, AlexaFluor 594 and AlexaFluor 647 secondary antibodies (1:500; Molecular Probes, Leyden, The Netherlands) were used. Samples were subsequently incubated with DAPI (1:5000, Roche) for 10 min, washed with PBS and mounted in Mowiol. All immunofluorescence data were obtained in a blinded manner by independent observers in a minimum of 6 correlative slices, from 1-in-10 series located between − 0.4 to + 1.6 mm to bregma. The lateral SVZ zone was delineated by using DAPI-counterstained cell nuclei, and analyses were performed in the upper dorsal tier, in which positively-labelled cells and immunoreactivity were quantified not beyond 100 μm of the SVZ. Confocal fluorescence images were acquired by using LAS-X software (Wetzlar, Germany) and SP8 microscope with 2 passes by Kalman filter, a 1024X1024 collection box, and pinhole AU 1. […] Cells were quantified within a 20 × 20 μm counting frame, which randomly sampled within a 122.8 × 68.9 μm counting grid. Cells that contacted the lateral or upper exclusion plane were excluded. The total number of cells counted was divided by the number of sampled counting frames and multiplied by its size to obtain the density of positive cells. Co-localization was confirmed by orthogonal projection of 18 z-stack files (1-μm each), and data were expressed as cells/mm^2. […]

[1] = AAV-htt16Q and AAV-htt94Q mice, 30 days
[2] = AAV-htt94Q mice, 4 weeks after lesion

SMILES: CCCCCC1=C(NCC)C(=O)C(CC=C(C)CCC=C(C)C)=C(O)C1=O [VCE-003.2, 2-(3,7-dimethyl-octa-2,6-dienyl)-6-ethylamino-3-hydroxy-5-pentyl-(1,4) benzoquinone]
- doublecortin-positive neuroblasts in striatum [1]: increased doublecortin-expressing cells
- effective neurogenesis, double-positive NeuN/BrdU neurons [1]: effective in promoting neurogenesis
- Ascl1-positive transit amplifying progenitors [2]: further promoted Ascl1-positive cell expansion
- proliferating SVZ neural stem cells, GFAP/Ki-67 double-labelled [2]: increased the number of proliferating GFAP-positive cells
- motor performance, RotaRod latency to fall (AAV-htt94Q mice, 14 days, vs vehicle): performed better in the RotaRod test
- MSN degeneration, DARPP-32 and NeuN immunofluorescence (AAV-htt94Q mice, 30 days after lesion): prevented htt94Q-induced MSN degeneration
- microglial activation, Iba1 immunoreactivity (AAV-htt94Q mice, vs vehicle): reduced microglial activation
